ChEMBL document CHEMBL5625277, “Systematical mutational analysis of teriparatide on anti-osteoporosis activity by alanine scanning” (Bioorg Med Chem Lett, 2024)
The source made the active and inactive calls. No cut-off for these calls is given here.

Columns and labels:
[1] = Cytotoxicity in pre-osteoblasts (unknown origin) assessed as cell death upto 5 uM by CCK8 assay; assay type: toxicity, cell-based; conditions: pre-osteoblast
Calvarial osteoblast = experiment: Induction of mineralization in osteoblast assessed as formation of calcium nodules at 50 to 100 nM measured after 14 days by Alizarin Red S staining based analysis; assay type: functional, cell-based; conditions: dose 50-100 nM, time 14.0 day
Skull progenitor cell = experiment: Induction of osteoblast differentiation in mouse skull progenitor cells assessed as increase in purple-stained ALP-positive cells at 100 nM measured after 4 days by imaging analysis; assay type: functional, cell-based; conditions: time 4.0 day

Structure (SMILES) | Activity [1] | Activity (Calvarial osteoblast) | Activity (Skull progenitor cell)
CC[C@H](C)[C@H](NC(=O)[C@H](CCC(=O)O)NC(=O)[C@H](CO)NC(=O)[C@@H](NC(=O)[C@H](CO)NC(C)=O)C(C)C)C(=O)N[C@@H](CCC(N)=O)C(=O)N[C@@H](CC(C)C)C(=O)N[C@@H](CCSC)C(=O)N[C@@H](Cc1cnc[nH]1)C(=O)N[C@@H](CC(N)=O)C(=O)N[C@@H](CC(C)C)C(=O)NCC(=O)N[C@@H](CCCCN)C(=O)N[C@@H](Cc1cnc[nH]1)C(=O)N[C@@H](CC(C)C)C(=O)N[C@@H](CC(N)=O)C(=O)N[C@@H](CO)C(=O)N[C@@H](CCSC)C(=O)N[C@@H](CCC(=O)O)C(=O)N[C@@H](CCCNC(=N)N)C(=O)N[C@H](C(=O)N[C@@H](CCC(=O)O)C(=O)N[C@@H](Cc1c[nH]c2ccccc12)C(=O)N[C@@H](CC(C)C)C(=O)N[C@@H](CCCNC(=N)N)C(=O)N[C@@H](CCCCN)C(=O)N[C@@H](CCCCN)C(=O)N[C@@H](CC(C)C)C(=O)N[C@@H](CCC(N)=O)C(=O)N[C@@H](C)C(=O)N[C@H](C(=O)N[C@@H](Cc1cnc[nH]1)C(=O)N[C@@H](CC(N)=O)C(=O)N[C@@H](Cc1ccccc1)C(N)=O)C(C)C)C(C)C | Non-Toxic | Active | Active
CC[C@H](C)[C@H](NC(=O)[C@H](CCC(=O)O)NC(=O)[C@H](CO)NC(=O)[C@@H](NC(=O)[C@H](CO)NC(C)=O)C(C)C)C(=O)N[C@@H](CCC(N)=O)C(=O)N[C@@H](CC(C)C)C(=O)N[C@@H](CCSC)C(=O)N[C@@H](Cc1cnc[nH]1)C(=O)N[C@@H](CC(N)=O)C(=O)N[C@@H](CC(C)C)C(=O)NCC(=O)N[C@@H](CCCCN)C(=O)N[C@@H](Cc1cnc[nH]1)C(=O)N[C@@H](CC(C)C)C(=O)N[C@@H](CC(N)=O)C(=O)N[C@@H](CO)C(=O)N[C@@H](CCSC)C(=O)N[C@@H](CCC(=O)O)C(=O)N[C@@H](CCCNC(=N)N)C(=O)N[C@H](C(=O)N[C@@H](CCC(=O)O)C(=O)N[C@@H](Cc1c[nH]c2ccccc12)C(=O)N[C@@H](CC(C)C)C(=O)N[C@@H](CCCNC(=N)N)C(=O)N[C@@H](CCCCN)C(=O)N[C@@H](CCCCN)C(=O)N[C@@H](CC(C)C)C(=O)N[C@@H](CCC(N)=O)C(=O)N[C@@H](CC(=O)O)C(=O)N[C@H](C(=O)N[C@@H](Cc1cnc[nH]1)C(=O)N[C@@H](CC(N)=O)C(=O)N[C@@H](Cc1ccccc1)C(N)=O)C(C)C)C(C)C | Non-Toxic |  | 
CC[C@H](C)[C@H](NC(=O)[C@H](CCC(=O)O)NC(=O)[C@H](CO)NC(=O)[C@@H](NC(=O)[C@H](CO)NC(C)=O)C(C)C)C(=O)N[C@@H](CCC(N)=O)C(=O)N[C@@H](CC(C)C)C(=O)N[C@@H](CCSC)C(=O)N[C@@H](Cc1cnc[nH]1)C(=O)N[C@@H](CC(N)=O)C(=O)N[C@@H](CC(C)C)C(=O)NCC(=O)N[C@@H](CCCCN)C(=O)N[C@@H](Cc1cnc[nH]1)C(=O)N[C@@H](CC(C)C)C(=O)N[C@@H](CC(N)=O)C(=O)N[C@@H](CO)C(=O)N[C@@H](CCSC)C(=O)N[C@@H](CCC(=O)O)C(=O)N[C@@H](CCCNC(=N)N)C(=O)N[C@H](C(=O)N[C@@H](CCC(=O)O)C(=O)N[C@@H](Cc1c[nH]c2ccccc12)C(=O)N[C@@H](CC(C)C)C(=O)N[C@@H](CCCNC(=N)N)C(=O)N[C@@H](CCCCN)C(=O)N[C@@H](CCCCN)C(=O)N[C@@H](C)C(=O)N[C@@H](CCC(N)=O)C(=O)N[C@@H](CC(=O)O)C(=O)N[C@H](C(=O)N[C@@H](Cc1cnc[nH]1)C(=O)N[C@@H](CC(N)=O)C(=O)N[C@@H](Cc1ccccc1)C(N)=O)C(C)C)C(C)C | Non-Toxic |  | 
CC[C@H](C)[C@H](NC(=O)[C@H](CCC(=O)O)NC(=O)[C@H](CO)NC(=O)[C@@H](NC(=O)[C@H](CO)NC(C)=O)C(C)C)C(=O)N[C@@H](CCC(N)=O)C(=O)N[C@@H](CC(C)C)C(=O)N[C@@H](CCSC)C(=O)N[C@@H](Cc1cnc[nH]1)C(=O)N[C@@H](CC(N)=O)C(=O)N[C@@H](CC(C)C)C(=O)NCC(=O)N[C@@H](CCCCN)C(=O)N[C@@H](Cc1cnc[nH]1)C(=O)N[C@@H](CC(C)C)C(=O)N[C@@H](CC(N)=O)C(=O)N[C@@H](CO)C(=O)N[C@@H](CCSC)C(=O)N[C@@H](CCC(=O)O)C(=O)N[C@@H](CCCNC(=N)N)C(=O)N[C@H](C(=O)N[C@@H](CCC(=O)O)C(=O)N[C@@H](C)C(=O)N[C@@H](CC(C)C)C(=O)N[C@@H](CCCNC(=N)N)C(=O)N[C@@H](CCCCN)C(=O)N[C@@H](CCCCN)C(=O)N[C@@H](CC(C)C)C(=O)N[C@@H](CCC(N)=O)C(=O)N[C@@H](CC(=O)O)C(=O)N[C@H](C(=O)N[C@@H](Cc1cnc[nH]1)C(=O)N[C@@H](CC(N)=O)C(=O)N[C@@H](Cc1ccccc1)C(N)=O)C(C)C)C(C)C | Non-Toxic |  | 
CC[C@H](C)[C@H](NC(=O)[C@H](CCC(=O)O)NC(=O)[C@H](CO)NC(=O)[C@@H](NC(=O)[C@H](CO)NC(C)=O)C(C)C)C(=O)N[C@@H](CCC(N)=O)C(=O)N[C@@H](CC(C)C)C(=O)N[C@@H](CCSC)C(=O)N[C@@H](Cc1cnc[nH]1)C(=O)N[C@@H](CC(N)=O)C(=O)N[C@@H](CC(C)C)C(=O)N[C@@H](C)C(=O)N[C@@H](CCCCN)C(=O)N[C@@H](Cc1cnc[nH]1)C(=O)N[C@@H](CC(C)C)C(=O)N[C@@H](CC(N)=O)C(=O)N[C@@H](CO)C(=O)N[C@@H](CCSC)C(=O)N[C@@H](CCC(=O)O)C(=O)N[C@@H](CCCNC(=N)N)C(=O)N[C@H](C(=O)N[C@@H](CCC(=O)O)C(=O)N[C@@H](Cc1c[nH]c2ccccc12)C(=O)N[C@@H](CC(C)C)C(=O)N[C@@H](CCCNC(=N)N)C(=O)N[C@@H](CCCCN)C(=O)N[C@@H](CCCCN)C(=O)N[C@@H](CC(C)C)C(=O)N[C@@H](CCC(N)=O)C(=O)N[C@@H](CC(=O)O)C(=O)N[C@H](C(=O)N[C@@H](Cc1cnc[nH]1)C(=O)N[C@@H](CC(N)=O)C(=O)N[C@@H](Cc1ccccc1)C(N)=O)C(C)C)C(C)C | Non-Toxic |  | 
CC[C@H](C)[C@H](NC(=O)[C@H](CCC(=O)O)NC(=O)[C@H](CO)NC(=O)[C@@H](NC(=O)[C@H](CO)NC(C)=O)C(C)C)C(=O)N[C@@H](CCC(N)=O)C(=O)N[C@@H](CC(C)C)C(=O)N[C@@H](CCSC)C(=O)N[C@@H](Cc1cnc[nH]1)C(=O)N[C@@H](CC(N)=O)C(=O)N[C@@H](CC(C)C)C(=O)NCC(=O)N[C@@H](C)C(=O)N[C@@H](Cc1cnc[nH]1)C(=O)N[C@@H](CC(C)C)C(=O)N[C@@H](CC(N)=O)C(=O)N[C@@H](CO)C(=O)N[C@@H](CCSC)C(=O)N[C@@H](CCC(=O)O)C(=O)N[C@@H](CCCNC(=N)N)C(=O)N[C@H](C(=O)N[C@@H](CCC(=O)O)C(=O)N[C@@H](Cc1c[nH]c2ccccc12)C(=O)N[C@@H](CC(C)C)C(=O)N[C@@H](CCCNC(=N)N)C(=O)N[C@@H](CCCCN)C(=O)N[C@@H](CCCCN)C(=O)N[C@@H](CC(C)C)C(=O)N[C@@H](CCC(N)=O)C(=O)N[C@@H](CC(=O)O)C(=O)N[C@H](C(=O)N[C@@H](Cc1cnc[nH]1)C(=O)N[C@@H](CC(N)=O)C(=O)N[C@@H](Cc1ccccc1)C(N)=O)C(C)C)C(C)C | Non-Toxic | Active | Active
CC[C@H](C)[C@H](NC(=O)[C@H](CCC(=O)O)NC(=O)[C@H](CO)NC(=O)[C@@H](NC(=O)[C@H](CO)NC(C)=O)C(C)C)C(=O)N[C@@H](C)C(=O)N[C@@H](CC(C)C)C(=O)N[C@@H](CCSC)C(=O)N[C@@H](Cc1cnc[nH]1)C(=O)N[C@@H](CC(N)=O)C(=O)N[C@@H](CC(C)C)C(=O)NCC(=O)N[C@@H](CCCCN)C(=O)N[C@@H](Cc1cnc[nH]1)C(=O)N[C@@H](CC(C)C)C(=O)N[C@@H](CC(N)=O)C(=O)N[C@@H](CO)C(=O)N[C@@H](CCSC)C(=O)N[C@@H](CCC(=O)O)C(=O)N[C@@H](CCCNC(=N)N)C(=O)N[C@H](C(=O)N[C@@H](CCC(=O)O)C(=O)N[C@@H](Cc1c[nH]c2ccccc12)C(=O)N[C@@H](CC(C)C)C(=O)N[C@@H](CCCNC(=N)N)C(=O)N[C@@H](CCCCN)C(=O)N[C@@H](CCCCN)C(=O)N[C@@H](CC(C)C)C(=O)N[C@@H](CCC(N)=O)C(=O)N[C@@H](CC(=O)O)C(=O)N[C@H](C(=O)N[C@@H](Cc1cnc[nH]1)C(=O)N[C@@H](CC(N)=O)C(=O)N[C@@H](Cc1ccccc1)C(N)=O)C(C)C)C(C)C | Non-Toxic |  | 
CSCC[C@H](NC(=O)[C@H](CC(C)C)NC(=O)[C@H](CCC(N)=O)NC(=O)[C@H](C)NC(=O)[C@H](CCC(=O)O)NC(=O)[C@H](CO)NC(=O)[C@@H](NC(=O)[C@H](CO)NC(C)=O)C(C)C)C(=O)N[C@@H](Cc1cnc[nH]1)C(=O)N[C@@H](CC(N)=O)C(=O)N[C@@H](CC(C)C)C(=O)NCC(=O)N[C@@H](CCCCN)C(=O)N[C@@H](Cc1cnc[nH]1)C(=O)N[C@@H](CC(C)C)C(=O)N[C@@H](CC(N)=O)C(=O)N[C@@H](CO)C(=O)N[C@@H](CCSC)C(=O)N[C@@H](CCC(=O)O)C(=O)N[C@@H](CCCNC(=N)N)C(=O)N[C@H](C(=O)N[C@@H](CCC(=O)O)C(=O)N[C@@H](Cc1c[nH]c2ccccc12)C(=O)N[C@@H](CC(C)C)C(=O)N[C@@H](CCCNC(=N)N)C(=O)N[C@@H](CCCCN)C(=O)N[C@@H](CCCCN)C(=O)N[C@@H](CC(C)C)C(=O)N[C@@H](CCC(N)=O)C(=O)N[C@@H](CC(=O)O)C(=O)N[C@H](C(=O)N[C@@H](Cc1cnc[nH]1)C(=O)N[C@@H](CC(N)=O)C(=O)N[C@@H](Cc1ccccc1)C(N)=O)C(C)C)C(C)C | Non-Toxic |  | 
